Reference: patent US20260345601A1, “FORMS OF CARBAMATE DERIVATIVES AND RELATED USES” (NodThera Limited, priority 2022, published 2026)
In brackets after ≈: the same amount, converted by molar mass.

What was measured:
Assay type in all cases: physicochemical
[1] = Solubility of Form 1 in IPAc/Heptane system (Table E)
Protocol: Solubility of Form 1 was further measured in IPAc/Heptane system with different ratio at 0-50 °C.

[2] = Solubility in aqueous and biorelevant media (Table A)
Source text: Form 1 was characterized using a wide range of techniques to investigate the solid form and chemical properties (FIGS. 1-6B).

[3] = Gravimetric vapour sorption (GVS)
Protocol: Gravimetric Vapour Sorption (GVS)
Sorption isotherms were obtained using a SMS DVS Intrinsic moisture sorption analyser, controlled by DVS Intrinsic Control software. The sample temperature was maintained at 25 °C by the instrument controls. The humidity was controlled by mixing streams of dry and wet nitrogen, with a total flow rate of 200 ml/min. The relative humidity was measured by a calibrated Rotronic probe (dynamic range of 1.0-100% RH), located near the sample. The weight change, (mass relaxation) of the sample as a function of % RH was constantly monitored by a microbalance (accuracy±0.005 mg).
Typically, 5-30 mg of sample was placed in a tared mesh stainless steel basket under ambient conditions. The sample was loaded and unloaded at 40% RH and 25 °C (typical room conditions). A moisture sorption isotherm was performed as outlined below (2 scans per complete cycle). The standard isotherm was performed at 25 °C at 10% RH intervals over a 0-90% RH range. Typically, a double cycle (4 scans) was carried out. Data analysis was carried out within Microsoft Excel using the DVS Analysis Suite.
The sample was recovered after completion of the isotherm and re-analysed by XRPD.

[4] = Storage at 25 °C/97% RH and 40 °C/75% RH
Protocol: Chemical Purity Determination by High-Performance Liquid Chromatography (HPLC)
Purity analysis was performed on an Agilent HP1100/Infinity II 1260 series system equipped with a diode array detector and using OpenLAB software. The full method details are provided below:
Unless stated within the appropriate data tables, all HPLC purity data reported has been run using the HPLC Method No. 2.

[5] = Drying stability test (Table I); conditions: 50 °C under vacuum
[6] = Solubility in single solvents, Form 2 as starting material (Table D); conditions: 20-25 °C; for Solubility: starting material Form 2, XRPD Form 1
Protocol: Solubility of Form 1 was measured in several single solvents using Form 2 as starting material, respectively. […] Thus, MeOH, Acetone, MEK, EtOAc and IPAc were selected for further chemical stability evaluation before starting solubility test with anti-solvents.

[7] = TGA (thermo-gravimetric analysis)/thermal analysis
Protocol: Thermo-Gravimetric Analysis (TGA)
TA Instruments Q500: TGA data were collected on a TA Instruments Q500 TGA, equipped with a 16 position auto-sampler. Typically, 5-10 mg of each sample was loaded onto a pre-tared aluminium DSC pan and heated at 10 °C/min from ambient temperature to 350 °C. A nitrogen purge at 60 ml/min was maintained over the sample. The instrument control software was Advantage for Q Series and Thermal Advantage and the data were analysed using Universal Analysis or TRIOS.

`CC(C)OC(=O)[C@@H](Cc1ncccn1)OC(=O)Nc1c2c(cc3c1CCC3)CCC2` [Form 1, propan-2-yl(2R)-2-{[(1,2,3,5,6,7-hexahydro-s-indacen-4-yl)carbamoyl]oxy}-3-(pyrimidin-2-yl) propanoate] gave a Solubility ([1]; IPAc/Heptane 1/0 (v/v), 30 °C) of 59.5 mg/mL (≈ 145 mM), a Solubility ([1]; IPAc/Heptane 1/0 (v/v), 40 °C) of 80.2 mg/mL (≈ 196 mM) and a Solubility ([1]; IPAc/Heptane 1/0 (v/v), 50 °C) of 170.6 mg/mL (≈ 417 mM). The Solubility ([1]; IPAc/Heptane 1/1 (v/v), 0-5 °C) was 6.4 mg/mL (≈ 15.6 mM), the Solubility ([1]; IPAc/Heptane 1/1 (v/v), 30 °C) was 12.1 mg/mL (≈ 29.5 mM) and the Solubility ([1]; IPAc/Heptane 1/1 (v/v), 50 °C) was 34.4 mg/mL (≈ 84 mM). The Solubility ([1]; IPAc/Heptane 1/2 (v/v), 0-5 °C) was 3.4 mg/mL (≈ 8.3 mM), the Solubility ([1]; IPAc/Heptane 1/2 (v/v), 30 °C) was 4.8 mg/mL (≈ 11.7 mM) and the Solubility ([1]; IPAc/Heptane 1/2 (v/v), 50 °C) was 18.0 mg/mL (≈ 44 mM). For the same compound, the Solubility ([1]; IPAc/Heptane 1/3 (v/v), 0-5 °C) was 1.7 mg/mL (≈ 4.15 mM), the Solubility ([1]; IPAc/Heptane 1/3 (v/v), 30 °C) was 2.9 mg/mL (≈ 7.08 mM) and the Solubility ([1]; IPAc/Heptane 1/3 (v/v), 50 °C) was 8.0 mg/mL (≈ 19.5 mM). For the same compound, the Solubility ([1]; IPAc/Heptane 2/1 (v/v), 30 °C) was 27.7 mg/mL (≈ 67.6 mM), the Solubility ([1]; IPAc/Heptane 2/1 (v/v), 50 °C) was 53.4 mg/mL (≈ 130 mM) and the Solubility ([1]; IPAc/Heptane 3/1 (v/v), 50 °C) was 65.2 mg/mL (≈ 159 mM). For the same compound, the Solubility ([1]; IPAc/Heptane 4/1 (v/v), 50 °C) was 75.2 mg/mL (≈ 184 mM), the Solubility ([1]; IPAc/Heptane 9/1 (v/v), 50 °C) was 120.0 mg/mL (≈ 293 mM) and the “XRPD form in solubility test” value ([1]; IPAc/Heptane, 0-50 °C, starting material Form 1) was “Form 1”. It also gave a Solubility ([2]; fassif) of 0.026 mg/mL (≈ 0.0635 mM), a Solubility ([2]; fessif) of 0.014 mg/mL (≈ 0.0342 mM) and a Solubility ([2]; pH = 1.2) of under 0.01 mg/mL. The Solubility ([2]; pH = 5) was under 0.01 mg/mL, the Solubility ([2]; pH = 6.5) was under 0.01 mg/mL and the Solubility ([2]; pH = 7.4) was under 0.01 mg/mL. For the same compound, the Solubility ([2]; pH = 8.5) was under 0.01 mg/mL, the Solubility ([2]; sgf) was 0.0047 mg/mL (≈ 0.0115 mM) and the GVS hygroscopicity ([3]; 25 °C) was “Non-hygroscopic”. For the same compound, the GVS hysteresis ([3]; 25 °C) was “no hysteresis”, the GVS water uptake ([3]; 25 °C, 0-90% RH) was <0.1% water uptake between 0-90% RH and the GVS water uptake ([3]; 25 °C, 40-90% RH) was under 0.1%. The “XRPD post GVS” value ([3]; form after GVS experiment) was “remained as Form 1”, the “Storage: solid form” value ([4]; 25 °C/97% RH) was “Form 1” and the “Storage: solid form” value ([4]; 40 °C/75% RH) was “Form 1”. The “Drying stability: XRPD” value ([5]; 0 h) was “Form 1”, the “Drying stability: purity” value ([5]; 0 h) was 99.0% and the “Drying stability: XRPD” value ([5]; 22 h) was “Form 1”. For the same compound, the “Drying stability: purity” value ([5]; 22 h) was 99.1%, the “Drying stability: XRPD” value ([5]; 70 h) was “Form 1” and the “Drying stability: purity” value ([5]; 70 h) was 99.1%. For the same compound, the “Drying stability in words” value ([5]; total 70 h) was “no degradation and form change”, the “Stability at elevated temperatures” value ([5]; total 70 h) was “chemically and physically stable at elevated temperatures” and the Solubility ([6]; Acetone) was 167 mg/mL (≈ 408 mM). For the same compound, the Solubility ([6]; EtOAc) was 98 mg/mL (≈ 239 mM), the Solubility in words ([6]; EtOH and IPA) was “moderate solubility” and the Solubility ([6]; EtOH) was 45 mg/mL (≈ 110 mM). For the same compound, the Solubility ([6]; IPA) was 24 mg/mL (≈ 58.6 mM), the Solubility ([6]; IPAc) was 48 mg/mL (≈ 117 mM) and the Solubility ([6]; MEK) was 175 mg/mL (≈ 427 mM). For the same compound, the Solubility ([6]; MeOH) was 77 mg/mL (≈ 188 mM), the Solubility in words ([6]; MeOH, Acetone, MEK, EtOAc and IPAc) was “good solubility” and the Solubility in words ([6]; n-heptane and water) was “poor solubility”. The Solubility ([6]; n-heptane) was 3 mg/mL (≈ 7.33 mM), the “Thermal stability by thermal analysis” value [7] was “thermally stable” and the “TGA weight loss before degradation” value ([7]; heated at 10 °C/min, nitrogen purge) was “no weight loss before degradation”.
